Data reported in paper PMC6271079, “Amino Acid Derivatives of Ligustrazine-Oleanolic Acid as New Cytotoxic Agents” (Molecules, 2014).
pIC50: −log10 of the molar value.

Tests used:
HT-29 = test: MTT cytotoxicity assay, HT-29; format: cell-based; settings: human colorectal cancer cells
Description: (§1) The cytotoxicity of these compounds was tested on five cells lines by the standard MTT assay. The human cancer cells lines (HepG2, HT-29, Hela, BGC-823) and MDCK cells were provided by the Chinese Academy of Medical Sciences Peking Union Medical College. The tumor cells were cultured in RPMI 1640 medium supplemented with 10% (v/v) fetal bovine serum and 1% (v/v) penicillin-streptomycin (Thermo Technologies, New York, NY, USA) at 37 °C in a humidified atmosphere with 5% CO2. The growing tumor cells at a density 3 × 10^3 cells/mL were exposed to various concentrations of the tested drugs and incubated in a 96-well microtiter plate for 72 h (37 °C, 5% CO2). After MTT solution (20 μL, 5 mg/mL) was added to each well, the plate was incubated for a further 4 h. Then the media was removed. Formazan crystals were dissolved with DMSO (150 μL). After mixing well, the absorbance was quantified at 490 nm with a BIORAD 550 spectrophotometer (Bio-rad Life Science Development Ltd., Beijing, China). Wells containing no drugs were used to be blanks. The IC50 values were defined as the concentration of compounds that produced a 50% reduction of surviving cells and calculated using the Logit-method. Tumor cell growth inhibitory rate was calculated in the following Equation (1): % inhibition = (1 − Sample group OD/Control group OD) × 100%(1)

[1] = test system: HepG2, HT-29, Hela and BGC-823; test: MTT cytotoxicity, summary statements over the cell lines; format: cell-based, human; settings: Homo sapiens, HepG2, HT-29, Hela and BGC-823, MTT; read-out: IC50, cytotoxicity on all four cancer cell lines
Description: as §1

MDCK cells [2] = test: MTT toxicity (nephrotoxicity) evaluation, MDCK; format: cell-based; settings: 72 h, Madin-Darby canine kidney cells
Description: as §1

Hela = test: MTT cytotoxicity assay, Hela; format: cell-based, human; settings: 72 h, cervical cancer cells
Description: as §1

BGC-823 = test: MTT cytotoxicity assay, BGC-823; format: cell-based; settings: human gastric cancer cells
Description: as §1

HepG2 = test: MTT cytotoxicity assay, HepG2; format: cell-based; settings: human hepatoma cells
Description: as §1

MDCK cells [3] = test: Giemsa staining, MDCK morphology; format: cell-based, canine; settings: 2 μM, 72 h, 200×
Description: (§2) HepG2 cells in logarithmic growth phase were cultured in 6-well plates for 24 h at 37 °C in a humidified atmosphere with 5% CO2. And then each group was treated with different concentrations of compound 6a for 72 h. The cell culture medium was discarded. And the cells were washed twice with PBS, kept in PBS/ethanol (1:1) for 2 min, fixated in ethanol for 10 min. After removing the ethanol, the cells were stained with Giemsa stain for 2 min and observed under inverted phase-contrast microscope at a magnification of 400×. MDCK cells in logarithmic growth phase were cultured in 6-well plates for 24 h at 37 °C in a humidified atmosphere with 5% CO2. The cells were treated with 2 μM of compound 6a and CDDP for 72 h. The same operation was experimented as described above, and the cells were observed under inverted phase-contrast microscope at a magnification of 200×.

HepG2 cells [4] = test: DAPI staining, HepG2 nuclear changes; format: cell-based, human; settings: 1, 2 and 4 μM, 72 h, 400×
Description: HepG2 cells in logarithmic growth phase were allowed to grow in 6-well plates for 24 h at 37 °C in a humidified atmosphere with 5% CO2. And each group was treated with different concentrations of compound 6a for 72 h. Cell culture medium was discarded and the cells were washed twice with PBS. The cells were fixed with 4% paraformaldehyde (pH 7.4) for 15 min and then washed twice with PBS. With an excitation wavelength of 470 nm, 4',6-diamidino-2-phenylindole (DAPI, 600 nM, Molecular Probes/Invitrogen Life Technologies, Carlsbad, CA, USA) staining was then performed for 2 min and nuclear fragments were observed using inverted phase-contrast microscope at a magnification of 400×.

[5] = logP by shake flask-ultraviolet spectrophotometry; format: physicochemical; settings: n-caprylic alcohol-water (octanol/water); pH 6.8, n-caprylic alcohol-water, shake flask-UV; read-out: logP (octanol-water partition coefficient)
Text: Lipophilicity (ClogP) is used in rational drug design as a key factor related to the cell transmembrane transport or other biological processes. ClogP values can either be calculated experimentally or predicted by means of commercially available programs. In this work, ClogP values of the TOA-amino acid derivatives were predicted using Sybyl-X 2.0 (Tripos, Certara Inc., St. Louis, MO, USA). […] To determine the octanol-water partition coefficient (logP), a shake flask-ultraviolet spectrophotometry method was used to determine the concentration of 6a and TOA in the water phase and organic phase at pH 6.8 with n-caprylic alcohol-water as the simulation system. […] However, the better activity connected with the increases of these amino acid conjugates’ solubility is worthy of further study.

HepG2 cells [6] = test: Giemsa staining, HepG2 morphology; format: cell-based, human; settings: 1, 2 and 4 μM, 72 h, 400×
Description: as §2

[7] = MTT cytotoxicity, summary statements over the cell lines; format: cell-based, human; settings: human (HepG2, HT-29, Hela, BGC-823); dog (MDCK), HepG2, HT-29, Hela, BGC-823 and MDCK cells, four cancer cell lines and MDCK, MTT; read-out: IC50, cytotoxicity on both cancer and MDCK cells
Description: as §1

Compound	melting point [°C]	IC50 (HT-29; HT-29, 72 h) [µM]	pIC50 [1]	IC50 (MDCK cells [2]; Canis lupus familiaris, MDCK) [µM]	IC50 (Hela; Homo sapiens) [µM]	IC50 (BGC-823; BGC-823, 72 h) [µM]	IC50 (HepG2; HepG2, 72 h) [µM]	IC50 (HT-29; 72 h) [µM]	Morphological changes of MDCK cells (Giemsa staining) (MDCK cells [3])	IC50 (MDCK cells [2]) [µM]	IC50 (Hela) [µM]	IC50 (BGC-823; 72 h) [µM]	IC50 (HepG2; 72 h) [µM]	Nuclear changes of HepG2 cells (DAPI staining) (HepG2 cells [4])	logP [5]	Morphological changes of HepG2 cells (Giemsa staining) (HepG2 cells [6])	IC50 at 72 h [7] [µM]
Cc1nc(C)c(COC(=O)[C@]23CCC(C)(C)CC2C2=CCC4[C@@]5(C)CC[C@H](OC(=O)[C@@H]6CCCN6)C(C)(C)C5CC[C@@]4(C)[C@]2(C)CC3)nc1C (stereo partly drawn) [Compound 6c, 3β-L-Proline ester olean-12-en-28-oic acid-3,5,6-trimethylpyrazin-2-methyl ester]	89.6 to 91.3	3.21	> 5.10	5.03	6.75	4.98	2.39	–	–	–	–	–	–	–	–	–	–
[NH2][Pt]([NH2])([Cl])[Cl] [CDDP, cisplatin, reference compound]	–	–	–	–	–	–	–	6.11	less density, larger volume, lighter nuclear staining and cellular atypia	3.69	9.84	6.82	2.86	–	–	–	–
Cc1nc(C)c(COC(=O)[C@]23CCC(C)(C)CC2C2=CCC4[C@@]5(C)CC[C@H](OC(=O)[C@@H](N)C(C)C)C(C)(C)C5CC[C@@]4(C)[C@]2(C)CC3)nc1C (stereo partly drawn) [Compound 6f, 3β-L-Valine ester olean-12-en-28-oic acid-3,5,6-trimethylpyrazin-2-methyl ester]	89.5 to 91	5.96	–	9.79	> 25	9.52	4.26	–	–	–	–	–	–	–	–	–	–
Cc1nc(C)c(COC(=O)[C@]23CCC(C)(C)CC2C2=CCC4[C@@]5(C)CC[C@H](OC(=O)CN)C(C)(C)C5CC[C@@]4(C)[C@]2(C)CC3)nc1C (stereo partly drawn) [Compound 6a, 3β-Glycine ester olean-12-en-28-oic acid-3,5,6-trimethylpyrazin-2-methyl ester]	–	2.5	–	4.88	3.26	3.06	2	–	no significant morphological changes	–	–	–	–	condensed chromatin, nuclear fragmentation and weak fluorescence	4.3	loss of intercellular contacts, lysis of nuclei, increased cell debris and membrane damage	–
Cc1nc(C)c(COC(=O)[C@]23CCC(C)(C)CC2C2=CCC4[C@@]5(C)CC[C@H](OC(=O)[C@@H]6CCC(=O)N6)C(C)(C)C5CC[C@@]4(C)[C@]2(C)CC3)nc1C (stereo partly drawn) [Compound 6j, 3β-L-Pyroglutamate ester olean-12-en-28-oic acid-3,5,6-trimethylpyrazin-2-methyl ester]	124.6 to 125.8	–	–	–	–	–	–	–	–	–	–	–	–	–	–	–	–
CC[C@H](C)[C@H](N)C(=O)O[C@H]1CC[C@@]2(C)C(CC[C@]3(C)C2CC=C2C4CC(C)(C)CC[C@]4(C(=O)OCc4nc(C)c(C)nc4C)CC[C@]23C)C1(C)C (stereo partly drawn) [Compound 6e, 3β-L-Isoleucine ester olean-12-en-28-oic acid-3,5,6-trimethylpyrazin-2-methyl ester]	89.8 to 90.7	9.83	–	> 25	> 25	> 25	5.97	–	–	–	–	–	–	–	–	–	–
Cc1nc(C)c(COC(=O)[C@]23CCC(C)(C)CC2C2=CCC4[C@@]5(C)CC[C@H](OC(=O)[C@@H](N)CCCCN)C(C)(C)C5CC[C@@]4(C)[C@]2(C)CC3)nc1C (stereo partly drawn) [Compound 6g, 3β-L-Lysine ester olean-12-en-28-oic acid-3,5,6-trimethylpyrazin-2-methyl ester]	87.5 to 88.2	2.35	–	2.31	2.38	2.48	2.27	–	–	–	–	–	–	–	–	–	< 2.5
